Source: patent publication US5004749A, “Concentrated aqueous solution of glutaraldehyde and 1,2-benzisothiazolin-3-one” (priority 1989, dated 1991)
Converted amounts (≈) assume the structure as drawn.

Legend:
[1] = type: physicochemical
Method: In order to compare the composition of the present invention with that disclosed in U.S. Pat. No. 4,539,071 (Clifford et al) a stable aqueous composition of isothiazolone, the following experiment was performed. To deionized water were added 0.2 percent cupric nitrate, 9 percent magnesium chloride and 15 percent magnesium nitrate, all in percent by weight.

[2] = tested on: Acinetobacter calcoaceticus, Pseudomonas aeruginosa, Enterobacter cloacae and Escherichia coli; test: MIC in calcium carbonate slurry, inoculated weekly, reduction to less than ten colony forming units/ml (Example 3); type: cell-based; details: for MIC: Calcium Carbonate Slurry
Method: Several forty gram samples of a calcium carbonate slurry (Gamma-Fil 90, available from the Georgia Marble Company) which were free of microbial growth, were prepared. These samples were divided into four groups. The first group was dosed with varying amounts of glutaraldehyde (in the form of a 50 percent aqueous solution); the second group was dosed with varying amounts of 1,2-benzisothiazolin-3-one the third group was dosed with varying amounts of glutaraldehyde (in the form of a 50 percent aqueous solution) and of 1,2-benzisothiazolin-3-one (in the form of Proxel® Press Paste) in a 14:1 ratio by weight of glutaraldehyde:BIT a fourth group was left untreated as a control. These samples were each inoculated three times on a weekly basis with an inoculum which contained the following microorganisms: Acinetobacter calcoaceticus, Pseudomonas aeruginosa, Enterobacter cloacae and Escherichia coli. The minimum inhibitory concentration (MIC) values were determined for preservative levels effective in reducing the contaminating microorganisms to less than ten colony forming units/ml for the first three groups. The number of colony forming units/ml in the control group was also determined.
(§1) The results for Examples 3 and 4 were quantified with respect to the synergy shown through the application of an equation described in Berenbaum, M.C. "A method for Testing for Synergy with Any Number of Agents" The Journal of Infectious Diseases, Vol 137, No. 2 pp 122-130 (February, 1978). The relevant equation is as follows: [formula]
(§2) If Z is less than 1, synergy is present. If Z equals 1, additive interaction is present. If Z is greater than 1, an antagonistic interaction is present.

microbial contamination = test: MIC in kaolin slurry with significant microbial spoilage, reduction to less than ten colony forming units/ml (Example 4); type: cell-based
Method: A sample of kaolin slurry with significant microbial spoilage was dosed with a range of concentrations of 1,2-benzisothiazolin-3-one, glutaraldehyde, and 1,2-benzisothiazolin-3-one plus glutaraldehyde (1:14 weight ratio). A sample was included, antimicrobial free, for control purposes with determinations of the colony forming units/ml. MIC values (in parts per million of Active Ingredient) to reduce microbial contamination to less than ten colony forming units/ml were determined by the absence of detectable growth by dilution plate counts.
as §1, §2

physchem = type: physicochemical
Method: A pH 3.2 solution was attained by adding 12.5 ml of 0.2 M acetic acid to 100 ml of deionized water. The pH 4.8 solution was prepared by adding 22.5 ml of 0.2 M acetic acid plus 27.5 ml of 0.2 M sodium acetate brought to a total volume of 100 ml with deionized water. Finally the pH of 6.8 solution was created by adding 4.1 ml of 0.2 M sodium acetate plus 1 drop of 0.2 M acetic acid to 100 ml of deionized water. […] Employing the same buffering agents, solutions with 50% aqueous glutaraldehyde were prepared having pH's of 3.2, 4.8 and 6.8 respectively. A twenty ml solution having a pH of 3.2 was attained with 1.45 ml of acetic acid; the twenty ml solution having a pH of 4.8 contained acetic acid and sodium acetate in a 3:1 weight ratio and the twenty ml solution having a pH of 6.8 contained 1.25 g of sodium acetate. The solubility of BIT in each solution was determined as described above.

For `O=c1[nH]sc2ccccc12` [BIT, 1,2-benzisothiazolin-3-one], the “solubility of 1,2-benzisothiazolin-3-one” value [1] was “essentially nil”, the MIC ([2]; Week 1) was 285 µg/mL and the MIC ([2]; Week 2) was over 570 µg/mL. The MIC ([2]; Week 3) was 380 µg/mL, the MIC (microbial contamination; 24 h, 1 day) was 178 µg/mL and the MIC (microbial contamination; 48 h, 2 days) was over 178 µg/mL. The MIC (microbial contamination; 72 h, 3 days) was over 178 µg/mL, the MIC (microbial contamination; 168 h, 7 days) was 133 µg/mL and the “solubility of 1,2-benzisothiazolin-3-one is increased by the addition of glutaraldehyde” value (physchem) was “increased considerably”. It also gave a solubility (physchem; buffered 50% aqueous glutaraldehyde, pH 3.2) of 31.8 mg/mL (≈ 210 mM), a solubility (physchem; buffered 50% aqueous glutaraldehyde, pH 4.8) of 33.8 mg/mL (≈ 224 mM) and a solubility (physchem; buffered 50% aqueous glutaraldehyde, pH 6.8) of 30.4 mg/mL (≈ 201 mM). For the same compound, the solubility (physchem; buffered deionized water, pH 3.2) was 3.2 mg/mL (≈ 21.2 mM), the solubility (physchem; buffered deionized water, pH 4.8) was 1.1 mg/mL (≈ 7.28 mM) and the solubility (physchem; buffered deionized water, pH 6.8) was 0.4 mg/mL (≈ 2.65 mM).

`O=CCCCC=O` [Glutaraldehyde, glutaraldehyde] gave an MIC ([2]; Week 1) of 250 µg/mL, an MIC ([2]; Week 2) of 500 µg/mL and an MIC ([2]; Week 3) of 500 µg/mL. For the same compound, the “antimicrobial activity/potency on repeated challenge (in words)” value ([2]; calcium carbonate slurry, second and third challenges with microbial insults) was “undergoes a reduction in antimicrobial activity”, the MIC (microbial contamination; 24 h, 1 day) was 250 µg/mL and the MIC (microbial contamination; 48 h, 2 days) was 150 µg/mL. For the same compound, the MIC (microbial contamination; 72 h, 3 days) was 200 µg/mL and the MIC (microbial contamination; 168 h, 7 days) was 250 µg/mL.
